Columns and labels:
CAM blood vessels = details: in vivo
Experimental: For the tests with eggs, egg whites were used Gallus gallus incubated in a thermostated incubator at controlled temperature and humidity. The incubation was performed with and without eggs lying giragem. A mark on the upper surface of the bark was used to control this procedure. The eggs were opened on the fourth day of incubation, after careful cleaning of the skin with cotton wool soaked in 70% alcohol. The opening was performed in laminar flow, keeping all your eggs in the same position in which they were hatched, supported on a plastic holder and marked on the upper surface. The experimental procedure was adapted and refined for the project, drawing on the first half of the twentieth century. The description of the method developed
After the opening and closing of windows all eggs were replaced in the incubator, with the same initial conditions and maintained for a further seven days, typically. […]
After brief fixation, the hull was breached and the embryo inert placed on a petri dish. […] In each trial, the image was captured from the fund, kept the lighting and color adjustments in order to standardize the images of the analyzed material. […]
Each region of the same sample was imaged in bright field and dark field, for better observation of details. The growth of the vascular network was analyzed with the program Image J by processing the images in bright field binary images. […]

PGE2 = PGE2 production by HUVEC, ELISA of culture supernatants; format: cell-based, human; details: 1×10^4 cells/mL and 2×10^5 cells/mL plating
Experimental: (§1) Cell lines used: non-neoplastic cells derived from human umbilical cord endothelial (HUVEC) and neoplastic cells of melanoma, B16F10 murine tumor. The HUVECs were provided by Dra. Dulcinea Saes Parra Abdalla, Department of Clinical and Toxicological Analyses, FCF-USP's and B16F10 murine melanoma cells, by Prof. Marcia Cominetti Department of Physiology and Molecular Biology of UFSCar. Both strains were grown in RPMI with 10% fetal calf serum. […] The preliminary investigation of the effect on angiogenesis was also made in vitro with HUVEC. The measures were undertaken to study the cell cycle by flow cytometry (propidium iodide and acridine orange) the assessment of mitochondrial activity by confocal microscopy (Mitotracker Red), and measurement of VEGF and PGE2 production by HUVEC, we performed cell culture supernatants by ELISA with commercial antibodies.

VEGF = VEGF production by HUVEC, ELISA of culture supernatants; format: cell-based, human
Experimental: as §1

[1] = test system: chemically induced colon tumors; test: Chemically (MNNG) induced colon tumors in mice: tumor size, PCNA, apoptotic index, CASPASE-3; format: in vivo, Balb/c mice
Experimental: The effect of cyclodextrin-carried MDJ made in Example 3 above was studied in an experimental model of colonic cancer in mice. Apoptosis and cell proliferation, the two most important events related to tumor growth were investigated. The apoptosis and proliferation indexes of colon tumor, adjacent non-cancer tissues and normal colonic tissues were determined. Apoptosis was quantified by apoptotic nuclei counting and CASPASE-3 immunostaining, whereas proliferation was determined by PCNA immunostaining.
The animals were maintained in agreement with the guidelines of Committee on Care and Uses of Laboratory Animals of the National Research Council of the National Institutes of Health (USA). The mice were fed with food and water ad libitum and maintained on hardwood bedding under a 12-h light/dark cycle. Animals were weighed weekly during the experiments. All experiments were approved by the USP Animal Ethics Committee.
(§2) Briefly, Balb/c mice were treated by intrarectal instillations of the carcinogen N-methyl-N′-nitro-N-nitrosoguanidine (MNNG), twice a week for 2 weeks (XX), and were sacrificed 24 weeks after the beginning of the treatment. Ten days before the end of the experiment, the animals of group A (n=10) were treated with daily i.p. injections of cyclodextrin-carried MDJ (10 μL of saline solution with 1 millimolar MDJ) for every 60 grams of body weight. The animals of group B (n=10) were treated by daily intrarectal instillations of cyclodextrin-carried MDJ, at the same dosage. The group C (n=10) was treated with MNNG and with daily i.p. injections of MDJ (diluted at 10% in 100 μL of saline). The animals of the group D were treated with MNNG and by daily intrarectal instillations of MDJ, at the same dosage. The control group E was treated with MNNG alone. The control groups F and G were treated with saline and cyclodextrin-carried MDJ, i.p. and i.r, respectively. The control groups H and I received saline and MDJ, i.p. and i.r, respectively. The dosages of cyclodextrin-carried MDJ and MDJ were based on previous animal pilot studies.
Colon tumor (T), adjacent non-tumor site (NT), macroscopically normal colonic mucosa from non-tumor […] (N) in the same treatment group were obtained. Immunohistochemistry was performed to study cell proliferation by the Proliferating cellular antigen (PCNA) staining and to analyze cell apoptosis by both the apoptotic bodies counting and by the CASPASE-3 staining. Results were expressed and PCNA labeling index (PCNA-Li), Apoptotic Index (AI) and CASPASE-3 Labeling Index (CASPASE-3-Li). Standard hematology and clinical chemistry parameters were also monitored.
Apoptosis was determined by apoptotic nuclei counting. Sections were stained with hematoxylin and eosin to evaluate the number of apoptotic cells per section. The criteria used to recognize apoptotic cells were: shrunk size, loss of contact with surrounding tissues (at times forming the classically described halo) and nuclear condensation as previously described (Yu et al., Gut 2002, 51:480-484). At least 1 000 cells were counted in five random fields and the percentage of cells with apoptotic features was then calculated (apoptotic index or AI). The apoptotic nuclei counts were compared with findings obtained by CASPASE-3 immunostaining in 30 randomly selected areas. A strong correlation between apoptotic nuclei count and CASPASE-3 results was found (r=0.83, P<0.001).
Proliferation was assayed by immunoperoxidase staining for Proliferating Cell Nuclear Antigen (PCNA) as described previously. Briefly, paraffin-embedded sections from each specimen were labeled with PCNA antibody, after microwave antigen retrieval in citrate buffer. Negative controls were run by replacing the primary antibody with non-immune serum. The slides were developed in 3,3-diaminobenzidine tetrahydrochloride (DAB, Dako, Denmark) and counter-stained with Mayer haematoxylin. […]

[2] = test system: B16F10 murine melanoma cells; test: MTT cytotoxicity and growth curves in murine melanoma cells; format: cell-based; details: cultures of murine melanoma
HUVEC [3] = test: MTT cytotoxicity and growth curves in endothelial cells; format: cell-based, human
[4] = Toxicity observations in the MNNG colon tumor study (histopathology, hematology, clinical chemistry); details: mouse, in vivo, ip
Experimental: as §2
Colon tumor (T), adjacent non-tumor site (NT), macroscopically normal colonic mucosa from non-tumor rats (N) in the same treatment group were obtained. […] Standard hematology and clinical chemistry parameters were also monitored.

B16F10 murine melanoma = test: CAM model inoculated with B16F10 murine melanoma; format: in vivo
Experimental: After the opening and closing of windows all eggs were replaced in the incubator, with the same initial conditions and maintained for a further seven days, typically. In this interval procedures were carried out for tests of angiogenesis or for research on tumor growth in vivo. The observation of angiogenesis in eggs inoculated with tumor cells followed virtually the same test model of angiogenesis. Exposure to pure MDJ (cis/trans 96% pure from Sigma) or cyclodextrin-carried MDJ made in Example 3 above was performed on day 8, with the remaining eggs in the incubator until day 14. The inoculation with the melanoma cells was performed on day 4, eggs received MDJ pure or cyclodextrin-carried MDJ on the 8th day and remained incubated up to 14 days. During the development of the protocol, the time of inoculation and treatment were adjusted. Care during the collection and to obtain the images were standardized for all experiments.
The typical inoculum was 2×10^4 cells per egg, in a volume of culture medium less than […]. Melamona growth was accompanied by visual inspection of pigmented mass formation on the CAM, the magnifying glass and microscope. […]
Eggs used were measured by sampling and the average volume of 60 mL was maintained throughout the period of testing with a standard deviation below 10%. […] The tests of viability were monitored for up to 10 days. […]

HUVEC [5] = test: Mitochondrial activity of endothelial cells, Mitotracker Red confocal microscopy; format: cell-based, human; details: low-density plating
Experimental: FIGS. 15A-15F each show effect of MDJ on the mitochondrial activity of endothelial cells after 4 h of exposure in low-density plating on glass coverslips 25 mm in 24-well plates, as measured by Mitotracker red fluorescence confocal microscopy, increased 80× (40×+2× digital zoom). The calibration parameters were maintained for all measures. […] Concentrations equal to or greater than 1 mM lead to a decrease in the intensity/area of marking.
FIG. 16: Effect of MDJ on the mitochondrial activity of endothelial cells after 24 hours exposure in low-density plating on glass coverslips 25 mm in 24-well plates, as measured by Mitotracker Red fluorescence in confocal microscope, 40× magnification. The calibration parameters were maintained for all measurements, each point is the average of six independent measurements.
Cell lines used: non-neoplastic cells derived from human umbilical cord endothelial (HUVEC) and neoplastic cells of melanoma, B16F10 murine tumor. The HUVECs were provided by Dra. Dulcinea Saes Parra Abdalla, Department of Clinical and Toxicological Analyses, FCF-USP's and B16F10 murine melanoma cells, by Prof. Marcia Cominetti Department of Physiology and Molecular Biology of UFSCar. Both strains were grown in RPMI with 10% fetal calf serum. […] The preliminary investigation of the effect on angiogenesis was also made in vitro with HUVEC. […]

HUVEC [6] = test: Cell cycle by flow cytometry (propidium iodide, acridine orange) in HUVEC; format: cell-based, human
Experimental: FIG. 13: Effect of MDJ on the cell cycle in HUVEC after 18 h of exposure in vitro. The concentrations used in each test are shown in graphics measures cell cycle were performed on a BD FACScalibur equipment, after labeling with propidium iodide simple. The staining with acridine orange served as a control of the process of apoptosis.
as §1

[7] = Degradation in vivo (applicant's unpublished studies)

With `CCCCCC1C(=O)CCC1CC(=O)OC` (centres unmarked) [MDJ, methyl 2-(3-oxo-2-pentylcyclopentyl)acetate] the “tolerability in fertilized eggs” value (CAM blood vessels) was “well tolerated by the eggs”, the “PGE2 production by HUVEC” value (PGE2) was “no increase in PGE2 production” and the “VEGF, pg/mL (2 × 10^6 cells, 4 h)” value (VEGF; MDJ 1 nM) was 566 ± 31 pg/mL. For the same compound, the “VEGF, pg/mL (2 × 10^6 cells, 4 h)” value (VEGF; MDJ 10 uM) was 319 ± 12 pg/mL, the “VEGF, pg/mL (2 × 10^6 cells, 4 h)” value (VEGF; MDJ 100 uM) was 450 ± 30 pg/mL and the “cell proliferation and apoptosis in normal colonic mucosa and mucosa adjacent to tumors” value ([1]; MNNG-treated and non-MNNG animals) was “not associated to any significant changes in cell proliferation and apoptosis”. The “Apoptotic Index (Tumor)” value ([1]; MNNG-treated mice, daily i.r.) was 0.29 ± 0.04, the “Caspase-3-Li (tumor)” value ([1]; MNNG-treated mice, daily i.r.) was 0.39 ± 0.11 and the “Tumor Size” value ([1]; MNNG-treated mice, daily i.r. instillation) was 0.56 mm^2. The PCNA-Li ([1]; colonic tumors, MNNG-treated mice, daily i.r.) was 0.41 ± 0.06, the “effect on tumor markers” value ([1]; i.r. administration) was “mild, but significant reduction in the above tumor markers” and the “toxicity (MTT, growth curves) compared with HUVEC” value [2] was “toxic concentrations were very close”. For the same compound, the “folding time (growth curves)” value (HUVEC [3]; HUVEC, at concentrations below 1 mM) was “about 20 h”, the “concentrations at which MTT dye reduction (mitochondrial activity) was maintained at a constant value” (HUVEC [3]; confluent HUVEC) was “less than 1 mM” and the “tolerability of i.p. injections (groups C and H discharged)” value [4] was “early signs or peritonitis”. The “melanoma bodies on CAM” value (B16F10 murine melanoma; CAM model) was “dose-dependent involution”, the “survival of eggs inoculated with melanoma cells” value (B16F10 murine melanoma; eggs with B16F10) was “partially recovered this survival” and the “concentrations leading to a decrease in the intensity/area of Mitotracker red marking” value (HUVEC [5]) was at least 1 mM. For the same compound, the “Distribution according to the phases of the cell cycle,% (18 h): Dead cells” value (HUVEC [6]; MDJ 1 nM) was 13%, the “Distribution according to the phases of the cell cycle,% (18 h): G0/G1” value (HUVEC [6]; MDJ 1 nM) was 72% and the “Distribution according to the phases of the cell cycle,% (18 h): G2/S” value (HUVEC [6]; MDJ 1 nM) was 15%. For the same compound, the “Marking with Acridine Orange,% (18 h)” value (HUVEC [6]; MDJ 1 nM) was 6.2 ± 0.1%, the “Distribution according to the phases of the cell cycle,% (18 h): Dead cells” value (HUVEC [6]; MDJ 10 nM) was 93% and the “Distribution according to the phases of the cell cycle,% (18 h): G0/G1” value (HUVEC [6]; MDJ 10 nM) was 5%. The “Distribution according to the phases of the cell cycle,% (18 h): G2/S” value (HUVEC [6]; MDJ 10 nM) was 2%, the “Marking with Acridine Orange,% (18 h)” value (HUVEC [6]; MDJ 1 uM) was 12 ± 0.9% and the “Distribution according to the phases of the cell cycle,% (18 h): Dead cells” value (HUVEC [6]; MDJ 10 uM) was 7%. The “Distribution according to the phases of the cell cycle,% (18 h): G0/G1” value (HUVEC [6]; MDJ 10 uM) was 60%, the “Distribution according to the phases of the cell cycle,% (18 h): G2/S” value (HUVEC [6]; MDJ 10 uM) was 33% and the “Marking with Acridine Orange,% (18 h)” value (HUVEC [6]; MDJ 10 uM) was 9.0 ± 0.5%. For the same compound, the “Distribution according to the phases of the cell cycle,% (18 h): Dead cells” value (HUVEC [6]; MDJ 100 uM) was 8%, the “Distribution according to the phases of the cell cycle,% (18 h): G0/G1” value (HUVEC [6]; MDJ 100 uM) was 56% and the “Distribution according to the phases of the cell cycle,% (18 h): G2/S” value (HUVEC [6]; MDJ 100 uM) was 36%. The “Marking with Acridine Orange,% (18 h)” value (HUVEC [6]; MDJ 100 uM) was 6.7 ± 0.3% and the degradation in vivo [7] was “degraded very quickly in vivo”.

Source: patent US9592305B2, “Compositions of jasmonate compounds and methods of use” (Nanocare Technologies, Inc., priority 2011, dated 2017)
